From patent US6011174A, “Cyclic amic acid derivatives” (Banyu Pharmaceutical Co., Ltd., priority 1996, dated 2000)

Legend:
[1] = system: farnesyl-modification of Ras protein in NIH3T3 cells transformed by activated ras gene; assay: Inhibitory activities against farnesyl-modification of Ras protein in NIH3T3 cells transformed by activated ras gene; format: cell-based; conditions: Mus musculus, 24 hours, read-out: 50% inhibitory concentrations against farnesyl-modification of Ras protein, IC50
Protocol: Using the compounds of the present invention, inhibitory activities against farnesyl-modification of Ras protein in NIH3T3 cells transformed by activated ras gene, were measured.
The NIH3T3 cells transformed by activated ras gene, were seeded on a culture plate and cultured for 3 days. Then, a compound of the preset invention in a predetermined concentration was added to the culture. In accordance with the method disclosed in J. Biol. Chem., vol. […] The cell extract was subjected to SDS polyacrylamide gel electrophoresis to separate farnesyl-modified Ras protein and non-farnesyl-modified Ras protein. The protein on the gel was transferred onto a nitrocellulose membrane, and an anti-Ras protein antibody was reacted as a probe (primary antibody reaction). An anti-primary antibody, a peroxidase inclusion (secondary antibody), was reacted, and then Ras protein was detected by a chemical fluorescence enhancing kit. The proportion of non-farnesyl-modified Ras protein was quantified by a densitometer and taken as the inhibitory activity.

[2] = target: T1, protein-farnesyl transferase (PFT) (Rattus norvegicus, UniProt Q02293+Q04631); assay: Inhibitory activities against protein-farnesyl transferase (PFT); format: biochemical; conditions: PFT from rat brain; prenyl acceptor H-ras protein or biotin-added Lys-Thr-Ser-Cys-Val-Ile-Met; 37° C., 20 minutes; read-out: 50% inhibitory concentrations against PFT activities, IC50
T1 construct: soluble fraction of rat's brain; from tissue; host or cells: rat brain, soluble fraction, 30%-50% ammonium sulfate cut, Q-Sepharose fraction

[3] = system: NIH3T3 Cells Transformed by Activated Ras Gene (NIH/ras); assay: Antitumor effect against NIH/ras cells in nude mice, intraperitoneal (tumor weight); format: in vivo, nude mouse; conditions: for Growth inhibition (tumor weight): once a day days 1-6, day 7; for Weight of tumor, Average ± standard deviation: once a day days 1-6, weighed day 7
Excerpt: Pharmacological Test Example 3 (Therapeutic Effects to NIH3T3 Cells Transformed by Activated Ras Gene (NIH/ras))
(§1) ^1) Tumor inoculation: 10^6 cells were inoculated subcutaneously
(§2) to a female nude mouse.
^2) Dose: Each dose was intraperitonealy administered once a day from
the first day to the sixth day after the inoculation of the cells,.
^3) Weight of tumor: On the seventh day after inoculation of the
cells, the tumors were weighed.
^4) Growth inhibition: (1(average weight of tumor of the treated
group/average weight of tumor of the control group)) × 100
* and **: Statistical analyses by utest are 5% and 1%, respectively.

[4] = system: NIH3T3 Cells Transformed by Activated Ras Gene (NIH/ras); assay: Antitumor effect against NIH/ras cells in nude mice, subcutaneous (tumor volume); format: in vivo, nude mouse; conditions: for Growth inhibition (tumor volume): once a day days 1-10, day 8; for Volume of tumor, Average ± standard deviation: once a day days 1-10, measured day 8, ** 1% (u test)
Protocol: as §1, §2
^2 Dose: Each dose was subcutaneously administered once a day from th
first day to the tenth day after the inoculation of the cells.
^3) Volume of tumor: On the eighth day after inoculation of the cells
volume of the tumors were measured.
^4) Growth inhibition: (1(average volume of tumor of the treated
group/average volume of tumor of the control group)) × 100

[5] = 10 mg/kg/injection subcutaneous
[6] = 20 mg/kg/injection subcutaneous
[7] = 40 mg/kg/injection subcutaneous

## C[C@H]([C@H](CCc1ccccc1)c1ccc(Oc2ccccc2)cc1)N(CC(=O)O)C(=O)[C@@H]1OC(C(=O)O)(C(=O)O)O[C@@H]1C(=O)O (relative stereo) [Example 23 (4R*, 5S*)-isomer, (4R*,5S*)-4-[N-(carboxymethyl)-N-{(1R,2R)-1-methyl-2-(4-phenoxyphenyl)-4-phenylbutyl}carbamoyl]-1,3-dioxolane-2,2,5-tricarboxylic acid]
[1]
  IC50: 2100 nM
[2]
  IC50: 0.085 nM

## C[C@H]([C@H](CCc1ccccc1)c1ccc(Oc2ccccc2)cc1)N(CC(=O)O)C(=O)[C@H]1OC(C(=O)O)(C(=O)O)O[C@H]1C(=O)O (relative stereo) [Example 23 (4S*, 5R*)-isomer, (4S*,5R*)-4-[N-(carboxymethyl)-N-{(1R,2R)-1-methyl-2-(4-phenoxyphenyl)-4-phenylbutyl}carbamoyl]-1,3-dioxolane-2,2,5-tricarboxylic acid]
[1]
  IC50: 2000 nM
[2]
  IC50: 0.075 nM

## COc1cc(C(CCc2ccccc2)C(C)N(CC(=O)O)C(=O)[C@@H]2COC(C(=O)O)(C(=O)O)O2)ccc1Oc1ccccc1 (single isomer, unassigned) [Example 31]
[1]
  IC50: 550 nM
[2]
  IC50: 0.22 nM

## CC(C(CCc1ccccc1)c1ccc(Oc2ccccc2)c(O)c1)N(CC(=O)O)C(=O)[C@@H]1COC(C(=O)O)(C(=O)O)O1 (single isomer, unassigned) [Example 32]
[1]
  IC50: 590 nM
[2]
  IC50: 0.2 nM

## C[C@H]([C@H](CCc1ccccc1)c1ccc(Oc2ccccc2)cc1)N(CC(=O)O)C(=O)[C@@H]1COC(C(=O)O)(C(=O)O)O1 [Example 9, (4S)-4-[N-(carboxymethyl)-N-{(1R,2R)-1-methyl-2-(4-phenoxyphenyl)-4-phenylbutyl}carbamoyl]-1,3-dioxolane-2,2-dicarboxylic acid]
[1]
  IC50: 240 nM
[2]
  IC50: 0.16 nM
[3]; 20 mg/kg/injection intraperitoneal
  Growth inhibition (tumor weight): 67%
[3]; 20 mg/kg/injection intraperitoneal, * 5% (u test)
  Weight of tumor, Average ± standard deviation: 0.024 ± 0.018 g
[3]; 40 mg/kg/injection intraperitoneal
  Growth inhibition (tumor weight): 80%
[3]; 40 mg/kg/injection intraperitoneal, ** 1% (u test)
  Weight of tumor, Average ± standard deviation: 0.015 ± 0.013 g
[3]; 80 mg/kg/injection intraperitoneal
  Growth inhibition (tumor weight): 90%
[3]; 80 mg/kg/injection intraperitoneal, ** 1% (u test)
  Weight of tumor, Average ± standard deviation: 0.008 ± 0.006 g
[3]; 160 mg/kg/injection intraperitoneal
  Growth inhibition (tumor weight): 98%
[3]; 160 mg/kg/injection intraperitoneal, ** 1% (u test)
  Weight of tumor, Average ± standard deviation: 0.002 ± 0.001 g

## C[C@H]([C@H](CCc1ccccc1)c1ccc(Oc2ccccc2)cc1)N(CC(=O)O)C(=O)[C@@H]1OC(C(=O)O)(C(=O)O)O[C@H]1C(=O)O [Example 21, (4R,5R)-4-[N-(carboxymethyl)-N-{(1R,2R)-1-methyl-2-(4-phenoxyphenyl)-4-phenylbutyl}carbamoyl]-1,3-dioxolane-2,2,5-tricarboxylic acid]
[1]
  IC50: 2100 nM
[2]
  IC50: 0.098 nM

## C[C@H]([C@H](CCc1ccccc1)c1ccc(Oc2ccccc2)cc1)N(CC(=O)O)C(=O)[C@H]1OC(C(=O)O)(C(=O)O)O[C@@H]1C(=O)O [Example 22, (4S,5S)-4-[N-(carboxymethyl)-N-{(1R,2R)-1-methyl-2-(4-phenoxyphenyl)-4-phenylbutyl}carbamoyl]-1,3-dioxolane-2,2,5-tricarboxylic acid]
[1]
  IC50: 1900 nM
[2]
  IC50: 0.095 nM
[4]; [5]
  Growth inhibition (tumor volume): 75%
  Volume of tumor, Average ± standard deviation: 0.164 ± 0.073 cm^3
[4]; [6]
  Growth inhibition (tumor volume): 92%
  Volume of tumor, Average ± standard deviation: 0.052 ± 0.030 cm^3
[4]; [7]
  Growth inhibition (tumor volume): 99%
  Volume of tumor, Average ± standard deviation: 0.010 ± 0.009 cm^3
